Experimental data: patent US20030216398A1, “Soluble beta amyloid precursor protein secretion promoters” (priority 2002, published 2003)
Where a name gives a salt, the structure may show the parent alone.

SMILES	melting point [°C]
COc1ccc(C(=O)N2c3ccccc3[C@H](N(C)c3ccccc3)C[C@@H]2C)cc1OC (racemic) [Example 28, cis-1-(3,4-Dimethoxybenzoyl)-N,2-dimethyl-N-phenyl-1,2,3,4-tetrahydro-4-quinolinamine]	180 to 181
C[C@H]1C[C@H](Nc2ccccc2)c2ccccc2N1C(=O)c1ccc2c(c1)OCO2 (relative stereo) [Example 7, Trans-1-(1,3-Benzodioxol-5-ylcarbonyl)-2-methyl-N-phenyl-1,2,3,4-tetrahydro-4-quinolinamine]	175
COc1ccc(C(=O)N2c3ccccc3[C@@H](Nc3cccc(C)n3)C[C@@H]2C)cc1OC (relative stereo) [Example 13, Trans-1-(3,4-Dimethoxybenzoyl)-2-methyl-N-(6-methyl-2-pyridinyl)-1,2,3,4-tetrahydro-4-quinolinamine]	184 to 186
CC1CC(Nc2ccccc2)c2ccccc2N1C(=O)c1ccc2c(c1)OCO2 (stereo not drawn) [Example 5, cis-1-(1,3-Benzoxol-5-ylcarbonyl)-2-methyl-N-phenyl-1,2,3,4-tetrahydro-4-quinolinamine]	175
COc1cc(C(=O)N2c3ccccc3C(Nc3ccccc3)CC2C)cc(OC)c1OC (stereo not drawn) [Example 6, cis-2-Methyl-N-phenyl-1-(3,4,5-trimethoybenzoyl)-1,2,3,4-tetrahydro-4-quinolinamine]	300
COc1ccc(C(=O)N2CCC(Nc3ccc(Cl)cc3)c3ccccc32)cc1OC (stereo not drawn) [Example 14, N-(4-chlorophenyl)-1-(3,4-dimethoxybenzoyl)-1,2,3,4-tetrahydro-4-quinolinamine]	131
COc1ccc(C(=O)N2CCC(Oc3ccc(Br)cc3)c3ccccc32)cc1OC (stereo not drawn) [Example 19]	56 to 57
COc1ccc(C(=O)N2CCN(Cc3ccccc3)c3ccccc32)cc1OC [Example 20, 1-Benzyl-4-(3,4-dimethoxybenzoyl)-1,2,3,4-tetrahydroquinoxaline]	111 to 112
COc1ccc(C(=O)N2CCC(Nc3ccc4ncccc4c3)c3ccccc32)cc1OC (stereo not drawn) [Example 21, 1-(3,4-Dimethoxybenzoyl)-N-(6-quinolinyl)-1,2,3,4-tetrahydro-4-quinolinamine]	116 to 118
COc1ccc(C(=O)N2CCC(Nc3ccccc3Cl)c3ccccc32)cc1OC (stereo not drawn) [Example 23, N-(2-Chlorophenyl)-1-(3,4-dimethoxybenzoyl)-1,2,3,4-tetrahydro-4-quinolinamine]	92 to 93
COc1ccc(C(=O)N2CCC(Nc3ccccc3F)c3ccccc32)cc1OC (stereo not drawn) [Example 24, 1-(3,4-Dimethoxybenzoyl)-N-(2-fluorophenyl)-1,2,3,4-tetrahydro-4-quinolinamine]	133 to 134
COc1ccc(C(=O)N2CCC(N(C)c3ccccc3C)c3ccccc32)cc1OC (stereo not drawn) [Example 25, 1-(3,4-Dimethoxybenzoyl)-N-methyl-N-(2-methylphenyl)-1,2,3,4-tetrahydro-4-quinolinamine]	170 to 171
COc1ccc(C(=O)N2CCC(Nc3c(Cl)cccc3Cl)c3ccccc32)cc1OC (stereo not drawn) [Example 26, N-(2,6-Dichlorophenyl)-1-(3,4-dimethoxybenzoyl)-1,2,3,4-tetrahydro-4-quinolinamine]	154 to 156
COc1ccc(C(=O)N2c3ccccc3C(Nc3ccccc3Cl)CC2C)cc1OC (stereo not drawn) [Example 27, N-(2-Chlorophenyl)-1-(3,4-dimethoxybenzoyl)-2-methyl-1,2,3,4-tetrahydro-4-quinolinamine]	148 to 150
COc1ccc(C(=O)N2CCC(Nc3ccc4c(c3)OCO4)c3ccccc32)cc1OC (stereo not drawn) [Example 31, N-(1,3-Benzodioxol-5-yl)-1-(3,4-dimethoxybenzoyl)-1,2,3,4-tetrahydro-4-quinolinamine]	135 to 136
COc1ccc(C(=O)N2CCC(N(C)c3ccccc3Cl)c3ccccc32)cc1OC (stereo not drawn) [Example 35, N-(2-Chlorophenyl)-1-(3,4-dimethoxybenzoyl)-N-methyl-1,2,3,4-tetrahydro-4-quinolinamine]	146 to 147
COc1ccc(C(=O)N2CCC(N(C)c3ccc(Br)cc3)c3ccccc32)cc1OC (stereo not drawn) [Example 37, N-(4-Bromophenyl)-1-(3,4-dimethoxybenzoyl)-N-methyl-1,2,3,4-tetrahydro-4-quinolinamine]	73 to 74
COc1ccc(C(=O)N2CCC(Nc3ccc(C)c(Cl)c3)c3ccccc32)cc1OC (stereo not drawn) [Example 38, N-(3-Chloro-4-methylphenyl)-1-(3,4-dimethoxybenzoyl)-1,2,3,4-tetrahydro-4-quinolinamine]	94 to 96
COc1ccc(C(=O)N2c3ccccc3C(Nc3ccc(Cl)cc3Cl)CC2C)cc1OC (stereo not drawn) [Example 43, N-(2,4-Dichlorophenyl)-1-(3,4-dimethoxybenzoyl)-2-methyl-1,2,3,4-tetrahydro-4-quinolinamine]	165 to 167
COc1ccc(C(=O)N2CCC(Nc3ccc(Cl)cc3)c3cc(Cl)ccc32)cc1OC (stereo not drawn) [Example 47, 6-Chloro-N-(4-chlorophenyl)-1-(3,4-dimethoxybenzoyl)-1,2,3,4-tetrahydro-4-quinolinamine]	176 to 178
COc1ccc(C(=O)N2CCC(Nc3ccccc3)c3ccc(Cl)cc32)cc1OC (stereo not drawn) [Example 50, 7-Chloro-1-(3,4-dimethoxybenzoyl)-N-phenyl-1,2,3,4-tetrahydro-4-quinolinamine]	125 to 126

Next, values leading:

melting point [°C]	SMILES
93 to 96	COc1ccc(C(=O)N2CCC(Nc3ccccc3C(C)C)c3ccccc32)cc1OC.Cl (stereo not drawn)
74 to 76	COc1ccc(C(=O)N2CCC(Nc3ccccc3Cl)c3ccc(Cl)cc32)cc1OC (stereo not drawn) (as salt: hydrochloride) [Example 51, 7-Chloro-N-(2-chlorophenyl)-1-(3,4-dimethoxybenzoyl)-1,2,3,4-tetrahydro-4-quinolinamine Hydrochloride]
210	C[C@H]1C[C@@H](Nc2ccccc2)c2ccccc2N1C(=O)c1ccncc1 (relative stereo) (hydrate or solvate) [Example 3, cis-1-Isonicotinoyl-2-methyl-N-phenyl-1,2,3,4-tetrahydro-4-quinolinamine]
121	C[C@H]1C[C@@H](Nc2ccccc2)c2ccccc2N1C(=O)c1ccncc1 (relative stereo) [Example 3, cis-1-Isonicotinoyl-2-methyl-N-phenyl-1,2,3,4-tetrahydro-4-quinolinamine]
157	C[C@H]1C[C@@H](Nc2ccccc2)c2ccccc2N1C(=O)c1ccccn1 (relative stereo) [Example 4, cis-2-Methyl-N-phenyl-1-(2-pyridinylcarbonyl)-1,2,3,4-tetrahydro-4-quinolinamine]
205	COc1cc(C(=O)N2c3ccccc3[C@@H](Nc3ccccc3)C[C@@H]2C)cc(OC)c1OC (relative stereo) [Example 8, Trans-2-Methyl-N-phenyl-1-(3,4,5-trimethoxybenzoyl)-1,2,3,4-tetrahydro-4-quinolinamine]
117 to 118	C[C@H]1C[C@H](Nc2ccccc2)c2ccccc2N1C(=O)c1ccc(Br)o1 (relative stereo) [Example 41, trans-1-(5-Bromo-2-furoyl)-2-methyl-N-phenyl-1,2,3,4-tetrahydro-4-quinolinamine]
193 to 194	C[C@H]1C[C@@H](Nc2ccccc2)c2ccccc2N1C(=O)c1ccc(-c2ccc(Cl)cc2)cc1 (relative stereo) [Example 52, cis-1-[(4′-Chloro[1,1′-biphenyl]-4-yl)carbonyl]-2-methyl-N-phenyl-1,2,3,4-tetrahydro-4-quinolinamine]
173 to 175	COc1ccc(C(=O)N2c3ccccc3C(Nc3ccc(Br)cc3)CC2C)cc1OC (stereo not drawn) [Example 12, N-(4-Bromophenyl)-1-(3,4-dimethoxybenzoyl)-2-methyl-1,2,3,4-tetrahydro-4-quinolinamine]
155 to 156	COc1ccc(C(=O)N2CCC(Nc3ccccc3)c3ccccc32)cc1OC (stereo not drawn) [Example 17, 1-(3,4-Dimethoxybenzoyl)-N-phenyl-1,2,3,4-tetrahydro-4-quinolinamine]
143 to 144	COc1ccc(C(=O)N2CCC(N(C)c3ccccc3)c3ccccc32)cc1OC (stereo not drawn) [Example 18, 1-(3,4-Dimethoxybenzoyl)-N-methyl-N-phenyl-1,2,3,4-tetrahydro-4-quinolinamine]
156 to 157	COc1ccc(C(=O)N2CCC(Nc3ccccn3)c3ccccc32)cc1OC (stereo not drawn) [Example 22, 1-(3,4-Dimethoxybenzoyl)-N-(2-pyridinyl)-1,2,3,4-tetrahydro-4-quinolinamine]
160	COc1ccc(C(=O)N2CCC(Nc3cccc(Cl)c3)c3ccccc32)cc1OC (stereo not drawn) [Example 32, N-(3-Chlorophenyl)-1-(3,4-dimethoxybenzoyl)-1,2,3,4-tetrahydro-4-quinolinamine]
130	COc1ccc(C(=O)N2CCC(Nc3ccc(Br)cc3)c3ccccc32)cc1OC (stereo not drawn) [Example 34, N-(4-Bromophenyl)-1-(3,4-dimethoxybenzoyl)-1,2,3,4-tetrahydro-4-quinolinamine]
72 to 74	COc1ccc(C(=O)N2CCC(N(C)c3ccc(Cl)cc3)c3ccccc32)cc1OC (stereo not drawn) [Example 36, N-(4-Chlorophenyl)-1-(3,4-dimethoxybenzoyl)-N-methyl-1,2,3,4-tetrahydro-4-quinolinamine]
87 to 89	COc1ccc(C(=O)N2CCC(Nc3ccccc3Cl)c3cc(Cl)ccc32)cc1OC (stereo not drawn) [Example 39, 6-Chloro-N-(2-chlorophenyl)-1-(3,4-dimethoxybenzoyl)-1,2,3,4-tetrahydro-4-quinolinamine]
133 to 134	COc1ccc(C(=O)N2CCN(Cc3ccc(-c4ccccc4)cc3)c3ccccc32)cc1OC [Example 42, 1-([1,1′-Biphenyl]-4-ylmethyl)-4-(3,4-dimethoxybenzoyl)-1,2,3,4-tetrahydroquinoxaline]
188 to 189	COc1ccc(C(=O)N2CCC(Nc3ccccc3)c3cc(Cl)ccc32)cc1OC (stereo not drawn) [Example 48, 6-Chloro-1-(3,4-dimethoxybenzoyl)-N-phenyl-1,2,3,4-tetrahydro-4-quinolinamine]
